Source: BindingDB's records for doi:10.1021/jm000506s (The R. W. Johnson Pharmaceutical Research Institute, 2001)

Assay: In vitro antagonist activity against Thrombin induced gel-filtered platelet (GFP) aggregation at 0.15 nM.

SMILES | IC50 [nM]
COc1ccc(C[C@H](NC(=O)Nc2ccc3c(CN4CCCC4)cn(Cc4ccc(OC(F)(F)F)cc4)c3c2)C(=O)N[C@@H](CCCNC(=N)N)C(=O)NCc2ccccc2)cc1 [5-Guanidino-2-(3-(4-methoxy-phenyl)-2-{3-[3-pyrrolidin-1-ylmethyl-1-(4-trifluoromethoxy-benzyl)-1H-indol-6-yl]-ureido}-propionylamino)-pentanoic acid benzylamide] | 18200
N=C(N)NCCC[C@H](NC(=O)[C@H](Cc1ccc(F)c(F)c1)NC(=O)Nc1ccc2c(CN3CCCC3)cn(Cc3c(Cl)cccc3Cl)c2c1)C(=O)NCc1ccncc1 [2-[2-{3-[1-(2,6-Dichloro-benzyl)-3-pyrrolidin-1-ylmethyl-1H-indol-6-yl]-ureido}-3-(3,4-difluoro-phenyl)-propionylamino]-5-guanidino-pentanoic acid (pyridin-4-ylmethyl)-amide] | 1060
COc1ccc(C[C@H](NC(=O)Nc2ccc3c(CNC4CCCC4)cn(Cc4ccc(F)cc4)c3c2)C(=O)N[C@@H](CCCNC(=N)N)C(=O)NCc2ccccc2)cc1 [2-[2-{3-[3-Cyclopentylaminomethyl-1-(4-fluoro-benzyl)-1H-indol-6-yl]-ureido}-3-(4-methoxy-phenyl)-propionylamino]-5-guanidino-pentanoic acid benzylamide] | 17800
COc1ccc(C[C@H](NC(=O)Nc2ccc3c(CN4CCCC4)cn(Cc4c(Cl)cccc4Cl)c3c2)C(=O)N[C@@H](CCCN=C(N)N)C(=O)NCc2ccccc2)cc1 [RWJ-54003] | 900
N=C(N)NCCC[C@H](NC(=O)[C@H](Cc1ccc(F)c(F)c1)NC(=O)Nc1ccc2c(CN3CCCC3)cn(Cc3c(Cl)cccc3Cl)c2c1)C(=O)NCc1ccccc1 [(S)-2-[(S)-2-{3-[1-(2,6-Dichloro-benzyl)-3-pyrrolidin-1-ylmethyl-1H-indol-6-yl]-ureido}-3-(3,4-difluoro-phenyl)-propionylamino]-5-guanidino-pentanoic acid benzylamide] | 570
NCC[C@H](NC(=O)[C@H](Cc1ccc(F)c(F)c1)NC(=O)Nc1ccc2c(CN3CCCC3)nn(Cc3c(Cl)cccc3Cl)c2c1)C(=O)NCc1ccccc1 [4-Amino-N-benzyl-2-[2-{3-[1-(2,6-dichloro-benzyl)-3-pyrrolidin-1-ylmethyl-1H-indazol-6-yl]-ureido}-3-(3,4-difluoro-phenyl)-propionylamino]-butyramide] | 370
COc1ccc(C[C@H](NC(=O)Nc2ccc3c(CN4CCCC4)cn(Cc4ccc(F)cc4)c3c2)C(=O)N[C@@H](CCCNC(=N)N)C(=O)NCc2ccccc2)cc1 [2-[2-{3-[1-(4-Fluoro-benzyl)-3-pyrrolidin-1-ylmethyl-1H-indol-6-yl]-ureido}-3-(4-methoxy-phenyl)-propionylamino]-5-guanidino-pentanoic acid benzylamide] | 2320
